From PMC10489644, “In Vitro Evaluation of the Potential for Drug Interactions by Salidroside” (Nutrients, 2023)
Where two headings read alike, the source gives them in different places.

What was measured:
CYP3A4/5 = assay: CYP direct inhibition in human liver microsomes; conditions: pooled human liver microsomes
CYP1A2 [1] = assay: in vitro
Experimental: (§1) The sandwich medium was removed, and the hepatocytes were treated with incubation solutions containing salidroside (1, 5, 10, and 30 µM), vehicle (0.1% DMSO), or positive inducers in triplicate for 24 h after the cultures were established. The incubation solution was aspirated and replaced with incubation solution containing the same concentrations of salidroside, vehicle, or positive inducers for an additional 24 h. The total treatment period was 48 h. After the treatment period of 48 h, the incubation solution was aspirated. Hepatocytes were washed twice with pre-warmed HBSS containing 10 mM HEPES (HBSS I) and then the remaining solution was aspirated. Hepatocytes were washed once with pre-warmed HBSS I and incubated with 140 μL of RLT (lysis buffer from RNeasy 96 Kit) supplemented with 1% β-mercaptoethanol. Plates were then stored at −70 °C in a freezer until RNA analysis. Before RNA extraction, the frozen plate was thawed, and cell lysates were transferred to 96-well plates. RNA isolation was performed using a QIAcube RNA extraction system. Reverse transcription was performed to obtain cDNA. Quantification of the selective genes by real-time quantitative polymerase chain reaction (qPCR) was performed with TaqMan universal PCR Master Mix on the Bio-rad CFX384 TouchTM Real-Time PCR System. The relative change in the mRNA level of the selected target genes induced by each test compound was expressed in relation to the vehicle control sample, and fold changes in gene expression were determined by the ΔΔCt method.
(§2) Enzyme activity (%) = PAR with compound/PAR vehicle × 100.

CYP1A2 [2] = assay: in vitro; conditions: CYP1A2 mRNA, 50 μM, 48 h; for fold induction at 48 h, 50 µM: human, cryopreserved human hepatocytes (sandwich culture), Mean Fold Induction
Experimental: as §1, with “The” for “The sandwich medium was removed, and the hepatocytes were treated with incubation solutions containing salidroside (1, 5, 10, and 30 µM), vehicle (0.1% DMSO), or positive inducers in triplicate for 24 h after the cultures were established. The”

CYP2B6 [3] = assay: CYP induction by enzyme activity in cryopreserved human hepatocytes (Lot# SNP)
Experimental: as §1, §2

CYP2B6 [4] = assay: in vitro; conditions: CYP2B6 mRNA, 1000 µM, 48 h; for fold induction at 48 h, 1000 µM: human, Mean Fold Induction
Experimental: as §1

OATP1B3 = molecular target: T1, OATP1B3 (Homo sapiens, UniProt Q9NPD5); assay: in vitro; conditions: human
T1 sequence (Q9NPD5 1-702): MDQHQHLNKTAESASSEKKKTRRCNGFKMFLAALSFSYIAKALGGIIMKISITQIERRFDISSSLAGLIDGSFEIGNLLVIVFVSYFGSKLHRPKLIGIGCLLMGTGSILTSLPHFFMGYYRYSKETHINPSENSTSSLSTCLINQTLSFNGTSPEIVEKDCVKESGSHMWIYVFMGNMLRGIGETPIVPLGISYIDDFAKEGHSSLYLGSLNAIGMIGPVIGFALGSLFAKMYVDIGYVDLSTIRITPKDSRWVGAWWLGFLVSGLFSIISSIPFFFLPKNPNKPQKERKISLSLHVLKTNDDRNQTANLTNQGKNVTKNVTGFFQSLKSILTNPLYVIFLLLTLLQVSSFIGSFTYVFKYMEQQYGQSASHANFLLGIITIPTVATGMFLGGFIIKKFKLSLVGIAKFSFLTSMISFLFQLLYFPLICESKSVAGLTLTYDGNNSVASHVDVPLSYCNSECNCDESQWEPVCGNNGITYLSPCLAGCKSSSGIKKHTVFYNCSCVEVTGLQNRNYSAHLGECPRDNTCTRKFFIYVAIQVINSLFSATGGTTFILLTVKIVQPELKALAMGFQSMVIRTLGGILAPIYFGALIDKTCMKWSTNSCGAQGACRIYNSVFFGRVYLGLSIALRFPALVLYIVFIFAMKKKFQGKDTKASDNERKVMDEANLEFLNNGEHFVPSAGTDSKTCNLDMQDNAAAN
Experimental: HEK293-OATP1B1 and OATP1B3 cells were diluted to 1 × 10^6 cells/mL with DMEM supplemented with 1% non-essential amino acid (NEAA), 10% fetal bovine serum (FBS), 1% PS solution (100 U/mL penicillin-G and 100 μg/mL streptomycin), and seeded on a 96-well BioCoat™ poly-d-lysine plate at a density of 1 × 10^6 cells/mL. […] Once the cells were anchored on the plate, the cell culture was replaced with DMEM containing 10% FBS and 1% PS solution (100 U/mL penicillin-G and 100 μg/mL streptomycin solution) and cultured one day for the uptake and inhibition studies. The cell culture medium was removed from the 96-well plate, then rinsed twice with 0.1 mL/well of pre-warmed transport buffer. The transporter cells containing pre-incubation solution were pre-incubated at 37 °C for 30 min. Then the pre-incubation solution was removed and replaced with 0.1 mL/well of dosing solution containing a substrate, respectively (blank transporter buffer containing a substrate, transport buffer containing a substrate and PC, and transport buffer containing a substrate and salidroside). Then, the transporter cells were incubated at 37 °C for 2 min. After incubation, all solutions in the cells were discarded and rinsed with 0.10 mL/well of ice-cold transport buffer (4 °C) three times. […] All samples were shaken and centrifuged at 4000 rpm at 4 °C for 15 min and the supernatant was removed for future analysis by LC-MS/MS.
as §2

recombinant human MAO-B = molecular target: T2, recombinant human MAO-B (Homo sapiens, UniProt P27338); assay: MAO inhibition, kynuramine oxidation to 4-hydroxyquinoline; type: biochemical; conditions: substrate kynuramine (20 µM); mean of N = 2
T2 construct: purchased Corning
T2 sequence (P27338 1-520): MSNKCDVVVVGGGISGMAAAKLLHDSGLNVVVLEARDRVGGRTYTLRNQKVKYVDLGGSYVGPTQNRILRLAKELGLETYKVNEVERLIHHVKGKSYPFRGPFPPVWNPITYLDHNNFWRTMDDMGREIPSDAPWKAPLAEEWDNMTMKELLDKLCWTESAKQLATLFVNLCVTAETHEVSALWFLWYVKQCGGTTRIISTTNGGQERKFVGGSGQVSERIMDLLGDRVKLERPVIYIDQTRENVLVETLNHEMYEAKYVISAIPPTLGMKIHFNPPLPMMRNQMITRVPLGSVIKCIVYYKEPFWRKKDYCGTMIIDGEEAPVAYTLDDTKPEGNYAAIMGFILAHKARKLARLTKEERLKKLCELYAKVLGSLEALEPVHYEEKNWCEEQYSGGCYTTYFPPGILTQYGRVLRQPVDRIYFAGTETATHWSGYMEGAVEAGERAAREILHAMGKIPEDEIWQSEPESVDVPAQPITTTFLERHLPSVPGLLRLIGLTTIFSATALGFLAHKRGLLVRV
Experimental: (§3) A total of 99 µL of substrate working solution was added into 1.1 mL incubation tubes and then 1 µL of the test compound/control working solution or DMSO (vehicle control) was added, mixed well, and pre-incubated at 37 °C for 5 min. MAO-A (0.005 mg/mL) and MAO-B (0.02 mg/mL) were pre-incubated in the working solution at 37 °C for 5 min. A total of 100 µL of pre-incubated MAO-A or MAO-B working solution was added to incubation tubes to start the reaction, mixed well, and incubated at 37 °C for 15 min. […] All samples were centrifuged at 4000 rpm at 4 °C for 15 min, then 100 µL supernatant with 100 µL of water was transferred for LC-MS/MS analysis.
as §2
(§4) The oxidation of kynuramine to 4-hydroxyquinoline generated was the in vitro marker reaction of MAO-A and MAO-B enzymes.

recombinant human MAO-A = molecular target: T3, recombinant human MAO-A (Homo sapiens, UniProt P21397); assay: as above; type: biochemical; conditions: substrate kynuramine (20 µM); mean of N = 2; read-out: IC50 MAO-A
T3 sequence (P21397 1-527): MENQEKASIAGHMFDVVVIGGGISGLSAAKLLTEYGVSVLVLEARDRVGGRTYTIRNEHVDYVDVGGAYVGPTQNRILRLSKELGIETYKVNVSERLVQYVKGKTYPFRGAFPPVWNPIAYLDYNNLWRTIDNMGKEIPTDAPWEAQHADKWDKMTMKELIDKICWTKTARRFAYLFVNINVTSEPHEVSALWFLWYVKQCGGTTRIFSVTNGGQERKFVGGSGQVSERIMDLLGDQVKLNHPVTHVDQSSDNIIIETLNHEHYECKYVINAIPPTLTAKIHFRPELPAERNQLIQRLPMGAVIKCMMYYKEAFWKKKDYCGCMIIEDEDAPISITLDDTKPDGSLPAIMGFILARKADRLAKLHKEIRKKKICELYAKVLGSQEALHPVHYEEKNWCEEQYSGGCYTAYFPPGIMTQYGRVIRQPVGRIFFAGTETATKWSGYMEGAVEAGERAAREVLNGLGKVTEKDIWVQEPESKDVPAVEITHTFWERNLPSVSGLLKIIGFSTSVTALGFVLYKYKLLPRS
Experimental: as §3, §2, §4

MAO-B = tested on: MAO-B; design: method as in PMID 19168123; conditions: isolated compound at 10 µM; cited from earlier work

Work on CC(=O)N1CCN(c2ccc(OCC3COC(Cn4ccnc4)(c4ccc(Cl)cc4Cl)O3)cc2)CC1 (stereo not shown) [Ketoconazole, ketoconazole] yielded an IC50 at 10 min (CYP3A4/5; probe midazolam) of 0.027 µM and an IC50 at 10 min (CYP3A4/5; probe testosterone) of 0.0183 µM.

With COc1ccc2[nH]c([S+]([O-])Cc3ncc(C)c(OC)c3C)nc2c1 (stereo not shown) [OME, omeprazole, reference compound] the fold induction at 48 h, 50 µM (CYP1A2 [1]) was 3.55, the “% of Positive Control” value (CYP1A2 [1]; CYP1A2 activity, Lot# SNP, 50 µM) was 100% and the “% Positive Control” value (CYP1A2 [2]; Lot# 1911442) was 100%. For the same compound, the “% Positive Control” value (CYP1A2 [2]; Lot# MWB) was 100%, the “% Positive Control” value (CYP1A2 [2]; Lot# RFM) was 100% and the fold induction at 48 h, 50 µM (CYP1A2 [2]; Lot# 1911442) was 10. The fold induction at 48 h, 50 µM (CYP1A2 [2]; Lot# MWB) was 24 and the fold induction at 48 h, 50 µM (CYP1A2 [2]; Lot# RFM) was 19.

In the case of CCC1(c2ccccc2)C(=O)NC(=O)NC1=O [PB, phenobarbital, reference compound], the “% of Positive Control” value (CYP2B6 [3]; CYP2B6 activity, Lot# SNP, 1000 µM) is reported as 100%, the fold induction at 48 h, 1000 µM (CYP2B6 [3]; human) is reported as 5.69 and the “% Positive Control” value (CYP2B6 [4]; Lot# 1911442) is reported as 100%. For the same compound, the “% Positive Control” value (CYP2B6 [4]; Lot# MWB) was 100%, the “% Positive Control” value (CYP2B6 [4]; Lot# RFM) was 100% and the fold induction at 48 h, 1000 µM (CYP2B6 [4]; Lot# 1911442) was 13.6. For the same compound, the fold induction at 48 h, 1000 µM (CYP2B6 [4]; Lot# MWB) was 14.7 and the fold induction at 48 h, 1000 µM (CYP2B6 [4]; Lot# RFM) was 8.81.

CO[C@H]1/C=C/O[C@@]2(C)Oc3c(C)c(O)c4c(O)c(c(/C=N/N5CCN(C)CC5)c(O)c4c3C2=O)NC(=O)/C(C)=C\C=C\[C@H](C)[C@H](O)[C@@H](C)[C@@H](O)[C@@H](C)[C@H](OC(C)=O)[C@@H]1C [RIF, rifampicin, reference compound] gave an IC50 at 2 min (OATP1B3) of 1.54 µM.

For Cc1oncc1C(=O)Nc1ccc(C(F)(F)F)cc1 [leflunomide, reference compound], the IC50 (recombinant human MAO-B) was 7.4 µM and the IC50 (recombinant human MAO-A) was 13.8 µM.

For CC(C)=CC[C@H](O)/C(C)=C/CO[C@@H]1O[C@H](CO)[C@@H](O)[C@H](O)[C@H]1O [rosirdin, reference compound], the “inhibition of MAO-B” value (MAO-B) is listed as 83.8%.
